Assay results from PMC11845477, “Exploring the principles behind antibiotics with limited resistance” (Nature Communications, 2025).

Tests used:
[1] = tested on: A. baumannii ATCC 17978 (SEN) and A. baumannii ATCC BAA-1605 (MDR); experiment: microbe, parasite or virus in culture; format: cell-based, Acinetobacter baumannii; details: for MIC: Acinetobacter baumannii, across three biological replicates
Description: This study focused on multiple bacterial strains, as follows. For the FoR and ALE experiments, 2 strains per species were chosen: E. coli ATCC 25922, K. pneumoniae ATCC 10031, A. baumannii ATCC 17978, and P. aeruginosa ATCC BAA-3107 as sensitive (SEN) strains, and E. coli NCTC13846, K. pneumoniae ATCC 700603, A. baumannii ATCC BAA-1605 and P. aeruginosa LESB58 as multi-drug resistant (MDR) strains. Functional metagenomic screens were performed with E. coli ATCC 25922 and K. pneumoniae ATCC 10031 strains. To determine the dose-kill properties of the different antibiotics, an E. coli strain (ATCC 25922) expressing a yellow fluorescent protein (pZS2R, YFP, CHL^R) and a red fluorescent protein (pZS2R, mCherry, CHL^R) was used.
Unless otherwise indicated, cation-adjusted Mueller-Hinton Broth 2 (MHB, Millipore) medium was used throughout the study, except for SCH79797 (SCH).
(§1) A robotic liquid handling system was used to automatically prepare a 11 to 16-step serial dilution in 384-well microtiter plates (Greiner). A final concentration of 5 × 10^5 bacterial cells per mL were inoculated into each well containing 60 µL MHB medium. Bacterial cultures were incubated at 37 °C with continuous shaking (Infors shaker, 900 rpm with 3 mm throw) for 18 hours (2 replicates from each). Cell growth was monitored by measuring the optical density (OD600 values, using Biotek Synergy microplate reader). MIC was defined as the antibiotic concentration of complete growth inhibition (i.e., OD600 < 0.05). Relative MIC was calculated as follows:1 relativeMIC=MICevolved/MICancestor

[2] = tested on: E. coli ATCC 25922 (SEN) and E. coli NCTC13846 (MDR); experiment: Adaptive laboratory evolution (ALE), relative MIC of evolved lines; format: cell-based, Escherichia coli
Source text: Using the same set of bacterial strains, we initiated adaptive laboratory evolution with the aim to maximize the level of antibiotic resistance in the populations achieved during a longer, but fixed time period.
An established protocol for adaptive laboratory evolution[46],[73] was followed to propagate populations with the highest resistance levels. Starting with an antibiotic concentration that caused approximately 50% growth inhibition, ten parallel populations for each antibiotic-ancestor strain combination were grown for 72 hours at 37 °C with continuous shaking (300 RPM). MHB broth medium was used unless stated otherwise. After each incubation, 20 µl of each culture was transferred to four new wells containing fresh medium with increasing antibiotic concentrations (0.5×, 1×, 1.5×, and 2.5× the previous concentration) in a chessboard layout to monitor potential cross-contamination. Growth was monitored by measuring OD600 using a Biotek Synergy 2 microplate reader, and only populations grown in the highest drug concentration with an OD600 > 0.2 were transferred further.
as §1, with “relativeMIC=MICevolved/MICancestor […]” for “relativeMIC=MICevolved/MICancestor”
Supplementary Figure 4. Resistance levels following adaptive laboratory evolution across bacterial strains. The level of resistance was measured as the fold change in relative MIC between evolved and ancestral strains after ~60 days of adaptive laboratory evolution. Data are grouped by bacterial strain (A. baumannii (AB), E. coli (EC), K. pneumoniae (KP), and P. aeruginosa (PA)) and categorized as either multidrug-resistant (MDR) or sensitive (SEN). Each data point represents a laboratory evolved line, and boxplots show the median, first and third quartiles, with whiskers indicating the 5th and 95th percentiles.
Statistical analysis was performed using two-sided Dunn’s post-hoc test with Benjamini-Hochberg correction for multiple comparisons (****/ ***/ **/ * indicates p < 0.0001/ 0.001/ 0.01/ 0.05). For detailed information on antibiotic and bacterial species, see Supplementary Table 1. For mode of action groups, refer to Table 1. Source data are provided as a Source Data file.
(1 picture or pasted object on this page, not shown here)

[3] = Acinetobacter baumannii ATCC 17978 (AB-SEN), ancestor strain, sheet fig 2a
[4] = Acinetobacter baumannii ATCC 17978 (AB-SEN)
[5] = Acinetobacter baumannii ATCC BAA-1605 (AB-MDR)
[6] = EC-SEN (Escherichia coli ATCC 25922), evolved line 2 adapted to the named antibiotic
[7] = EC-SEN (Escherichia coli ATCC 25922), evolved line 5 adapted to the named antibiotic
[8] = EC-SEN (Escherichia coli ATCC 25922), evolved line 6 adapted to the named antibiotic
[9] = EC-SEN (Escherichia coli ATCC 25922), evolved line 9 adapted to the named antibiotic

CNC(C)C1CCC(N)C(OC2C(N)CC(N)C(OC3OCC(C)(O)C(NC)C3O)C2O)O1 (stereo not shown) [Gentamicin]
MIC of ancestor ([1]; AB-SEN, Acinetobacter baumannii ATCC 17978, ancestor strain): 0.5 µg/mL | MIC of ancestor [1, 3]: 0.5 µg/mL | MIC [1, 4]: 0.5 µg/mL | MIC [1, 5]: > 32 µg/mL | Relative MIC (log10) ([2]; EC-MDR (Escherichia coli NCTC 13846), evolved line 3 adapted to the named antibiotic): 1.806 | Relative MIC (log10) ([2]; EC-MDR (Escherichia coli NCTC 13846), evolved line 5 adapted to the named antibiotic): 1.806 | Relative MIC (log10) ([2]; EC-MDR (Escherichia coli NCTC 13846), evolved line 6 adapted to the named antibiotic): 1.806 | Relative MIC (log10) ([2]; EC-MDR (Escherichia coli NCTC 13846), evolved line 7 adapted to the named antibiotic): 1.505 | Relative MIC (log10) ([2]; EC-MDR (Escherichia coli NCTC 13846), evolved line 9 adapted to the named antibiotic): 1.806 | Relative MIC ([2]; EC-MDR, Escherichia coli NCTC 13846, evolved line 1 versus ancestor): 64 | Relative MIC ([2]; EC-MDR, Escherichia coli NCTC 13846, evolved line 2 versus ancestor): 32 | Relative MIC ([2]; EC-MDR, Escherichia coli NCTC 13846, evolved line 3 versus ancestor): 64 | Relative MIC ([2]; EC-MDR, Escherichia coli NCTC 13846, evolved line 4 versus ancestor): 64 | Relative MIC ([2]; EC-MDR, Escherichia coli NCTC 13846, evolved line 5 versus ancestor): 64 | Relative MIC ([2]; EC-MDR, Escherichia coli NCTC 13846, evolved line 6 versus ancestor): 64 | Relative MIC ([2]; EC-MDR, Escherichia coli NCTC 13846, evolved line 7 versus ancestor): 32 | Relative MIC ([2]; EC-MDR, Escherichia coli NCTC 13846, evolved line 8 versus ancestor): 64 | Relative MIC ([2]; EC-MDR, Escherichia coli NCTC 13846, evolved line 9 versus ancestor): 64 | Relative MIC (log10) [2, 6]: 1.505 | Relative MIC (log10) ([2]; EC-SEN (Escherichia coli ATCC 25922), evolved line 4 adapted to the named antibiotic): 2.107 | Relative MIC (log10) [2, 7]: 1.806 | Relative MIC (log10) [2, 8]: 2.107 | Relative MIC (log10) [2, 9]: 1.806 | Relative MIC ([2]; EC-SEN, Escherichia coli ATCC 25922, evolved line 2 versus ancestor): 32 | Relative MIC ([2]; EC-SEN, Escherichia coli ATCC 25922, evolved line 3 versus ancestor): 32 | Relative MIC ([2]; EC-SEN, Escherichia coli ATCC 25922, evolved line 4 versus ancestor): 128 | Relative MIC ([2]; EC-SEN, Escherichia coli ATCC 25922, evolved line 5 versus ancestor): 64 | Relative MIC ([2]; EC-SEN, Escherichia coli ATCC 25922, evolved line 6 versus ancestor): 128 | Relative MIC ([2]; EC-SEN, Escherichia coli ATCC 25922, evolved line 7 versus ancestor): 32 | Relative MIC ([2]; EC-SEN, Escherichia coli ATCC 25922, evolved line 8 versus ancestor): 64 | Relative MIC ([2]; EC-SEN, Escherichia coli ATCC 25922, evolved line 9 versus ancestor): 64 | Relative MIC ([2]; EC-SEN, Escherichia coli ATCC 25922, evolved line 10 versus ancestor): 16 | Relative MIC ([2]; Escherichia coli ATCC 25922 (EC-SEN), evolved line 2): 32 | Relative MIC ([2]; Escherichia coli ATCC 25922 (EC-SEN), evolved line 3): 32 | Relative MIC ([2]; Escherichia coli ATCC 25922 (EC-SEN), evolved line 4): 128 | Relative MIC ([2]; Escherichia coli ATCC 25922 (EC-SEN), evolved line 5): 64 | Relative MIC ([2]; Escherichia coli ATCC 25922 (EC-SEN), evolved line 6): 128 | Relative MIC ([2]; Escherichia coli ATCC 25922 (EC-SEN), evolved line 7): 32 | Relative MIC ([2]; Escherichia coli ATCC 25922 (EC-SEN), evolved line 8): 64 | Relative MIC ([2]; Escherichia coli ATCC 25922 (EC-SEN), evolved line 9): 64 | Relative MIC ([2]; Escherichia coli ATCC 25922 (EC-SEN), evolved line 10): 16 | Relative MIC ([2]; Escherichia coli NCTC 13846 (EC-MDR), evolved line 1): 64 | Relative MIC ([2]; Escherichia coli NCTC 13846 (EC-MDR), evolved line 2): 32 | Relative MIC ([2]; Escherichia coli NCTC 13846 (EC-MDR), evolved line 3): 64 | Relative MIC ([2]; Escherichia coli NCTC 13846 (EC-MDR), evolved line 4): 64 | Relative MIC ([2]; Escherichia coli NCTC 13846 (EC-MDR), evolved line 5): 64 | Relative MIC ([2]; Escherichia coli NCTC 13846 (EC-MDR), evolved line 6): 64 | Relative MIC ([2]; Escherichia coli NCTC 13846 (EC-MDR), evolved line 7): 32 | Relative MIC ([2]; Escherichia coli NCTC 13846 (EC-MDR), evolved line 8): 64 | Relative MIC ([2]; Escherichia coli NCTC 13846 (EC-MDR), evolved line 9): 64

CN(C)c1cc(CNCC(C)(C)C)c(O)c2c1C[C@H]1C[C@H]3[C@H](N(C)C)C(O)=C(C(N)=O)C(=O)[C@@]3(O)C(O)=C1C2=O [Omadacycline]
MIC of ancestor ([1]; Acinetobacter baumannii ATCC 17978 (AB-SEN), ancestor): 0.5 µg/mL | MIC of ancestor [1, 3]: 0.5 µg/mL | MIC [1, 4]: 0.5 µg/mL | MIC [1, 5]: 16 µg/mL | Relative MIC (log10) ([2]; EC-SEN (Escherichia coli ATCC 25922), evolved line 1 adapted to the named antibiotic): 0.9031 | Relative MIC (log10) [2, 6]: 0.9031 | Relative MIC ([2]; EC-SEN (Escherichia coli ATCC 25922), evolved line 3): 4 | Relative MIC ([2]; EC-SEN (Escherichia coli ATCC 25922), evolved line 4): 8 | Relative MIC ([2]; EC-SEN (Escherichia coli ATCC 25922), evolved line 5): 8 | Relative MIC (log10) [2, 7]: 0.9031 | Relative MIC ([2]; EC-SEN (Escherichia coli ATCC 25922), evolved line 6): 4 | Relative MIC (log10) [2, 8]: 0.6021 | Relative MIC ([2]; EC-SEN (Escherichia coli ATCC 25922), evolved line 7): 2 | Relative MIC ([2]; EC-SEN (Escherichia coli ATCC 25922), evolved line 8): 8 | Relative MIC ([2]; EC-SEN (Escherichia coli ATCC 25922), evolved line 9): 8 | Relative MIC (log10) [2, 9]: 0.9031 | Relative MIC ([2]; EC-SEN (Escherichia coli ATCC 25922), evolved line 10): 4 | Relative MIC ([2]; EC-SEN ATCC 25922, evolved line 1, evolved line vs ancestor): 8 | Relative MIC ([2]; EC-SEN ATCC 25922, evolved line 2, evolved line vs ancestor): 8 | Relative MIC ([2]; EC-SEN ATCC 25922, evolved line 3, evolved line vs ancestor): 4 | Relative MIC ([2]; EC-SEN ATCC 25922, evolved line 4, evolved line vs ancestor): 8 | Relative MIC ([2]; EC-SEN ATCC 25922, evolved line 5, evolved line vs ancestor): 8 | Relative MIC ([2]; EC-SEN ATCC 25922, evolved line 6, evolved line vs ancestor): 4 | Relative MIC ([2]; EC-SEN ATCC 25922, evolved line 7, evolved line vs ancestor): 2 | Relative MIC ([2]; EC-SEN ATCC 25922, evolved line 8, evolved line vs ancestor): 8 | Relative MIC ([2]; EC-SEN ATCC 25922, evolved line 9, evolved line vs ancestor): 8 | Relative MIC ([2]; EC-SEN ATCC 25922, evolved line 10, evolved line vs ancestor): 4 | Relative MIC ([2]; EC-SEN, Escherichia coli ATCC 25922, evolved line 1): 8 | Relative MIC ([2]; EC-SEN, Escherichia coli ATCC 25922, evolved line 2): 8
